pKi: −log10 of the molar value.

The target of one experiment is T1, human σ1 receptor (Homo sapiens, UniProt Q99720).
T1 construct: expressed in transfected cells; host or cells: HEK-293
The experiment in a line: Human σ1 receptor radioligand assay. The note with it: transfected HEK-293 membranes, 5 nM [3H](+)-pentazocine, 37° C. 120 minutes; + may also stand for 1-50% inhibition at 1 or 10 μM; read-out: Binding σ-1 Ki. In short, it runs like this:
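Membranes (7 μg) were incubated with 5 nM [3H](+)-pentazocine in 50 mM Tris-HCl pH 8 for 120 min at 37° C. Non-specific binding was defined with 10 μM haloperidol. Values are % inhibition at 1 or 10 μM or Ki from five concentrations, read by filtration and scintillation counting.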

The target in another experiment is T2, human σ2/TMEM97 receptor (Homo sapiens, UniProt Q5BJF2).
T2 construct: expressed in transfected cells; host or cells: HEK-293
T2 sequence (Q5BJF2 whole entry): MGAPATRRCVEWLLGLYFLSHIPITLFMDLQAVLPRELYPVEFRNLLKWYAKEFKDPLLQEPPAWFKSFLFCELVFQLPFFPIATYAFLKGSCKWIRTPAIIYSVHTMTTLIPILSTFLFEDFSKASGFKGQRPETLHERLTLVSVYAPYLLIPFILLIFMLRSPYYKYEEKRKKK
The experiment in a line: Binding assay to human σ2/TMEM97 receptor. The note with it: transfected HEK-293 membranes, 10 nM [3H]-DTG, 25° C. 120 minutes; + may also stand for 1-50% inhibition at 1 or 10 μM; read-out: Binding σ-2 Ki. In short, it runs like this: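 Membranes from transfected HEK-293 cells (15 µg) were incubated with 10 nM [3H]-DTG in 50 mM Tris-HCl pH 8.0 for 120 min at 25 °C, with 10 µM haloperidol defining non-specific binding. Filtration and scintillation counting followed. Compounds tested as % inhibition at 1 or 10 µM, or at five concentrations for Ki.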

The target in a further experiment is sigma-2 (σ2) site (Homo sapiens, UniProt Q5BJF2). The note with it: background statement; cited from earlier work.
sigma-2 (σ2) site, sequence (Q5BJF2 whole entry): as above
The test system of experiment [1] is spared nerve injury (SNI) mice. To be noted: SNI mice model of neuropathic pain; cited from earlier work.

T1 sequence (Q99720 whole entry): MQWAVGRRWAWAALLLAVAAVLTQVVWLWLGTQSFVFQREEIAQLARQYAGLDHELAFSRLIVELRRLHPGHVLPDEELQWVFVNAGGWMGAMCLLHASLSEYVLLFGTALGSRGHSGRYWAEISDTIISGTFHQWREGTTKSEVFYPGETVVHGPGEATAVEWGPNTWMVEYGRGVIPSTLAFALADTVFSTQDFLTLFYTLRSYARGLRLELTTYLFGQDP

Usually pKi stands for the Ki on a negative log10 scale, so that one unit is a factor of ten. Regarding `N#Cc1ccc(CN2CCC3(CC2)CCN(S(=O)(=O)c2ccc(N4CCOC4=O)nc2)C3)cc1F` [Example 164, 2-Fluoro-4-((2-((6-(2-oxooxazolidin-3-yl)pyridin-3-yl)sulfonyl)-2,8-diazaspiro[4.5]decan-8-yl)methyl)benzonitrile], the pKi at human σ1 receptor and on human σ2/TMEM97 receptor was 6.30 to 7.00 each time. Consider `N#Cc1cc(CN2CCC3(CC2)CCN(S(=O)(=O)c2ccc(N4CCOC4=O)nc2)C3)ccc1F` [Example 165, 2-Fluoro-5-((2-((6-(2-oxooxazolidin-3-yl)pyridin-3-yl)sulfonyl)-2,8-diazaspiro[4.5]decan-8-yl)methyl)benzonitrile], for which the figures for the pKi at human σ1 receptor and at human σ2/TMEM97 receptor were less than 6.00 and 6.30 to 7.00, respectively.

With `O=C1OCCN1c1ccc(S(=O)(=O)N2CCC3(CCN(Cc4ccccc4F)CC3)CC2)cn1` [Example 166, 3-(5-((9-(2-Fluorobenzyl)-3,9-diazaspiro[5.5]undecan-3-yl)sulfonyl)pyridin-2-yl)oxazolidin-2-one], the pKi at human σ1 receptor is 6.00 to 6.30; on human σ2/TMEM97 receptor, more than 7.00.

With `CN(Cc1ccccc1)[C@H]1CC[C@H](NS(=O)(=O)c2ccc(N3CCOC3=O)nc2)CC1` [Example 167, N-((1 r,4r)-4-(Benzyl(methyl)amino)cyclohexyl)-6-(2-oxooxazolidin-3-yl)pyridine-3-sulfonamide], the pKi at human σ1 receptor was less than 6.00; on human σ2/TMEM97 receptor, 6.30 to 7.00. The corresponding values for `CN(CCC(C)(C)C)C1CCN(S(=O)(=O)c2ccc(N3CCC(F)(F)CC3)nc2)CC1` [Example 168, 1-((6-(4,4-Difluoropiperidin-1-yl)pyridin-3-yl)sulfonyl)-N-(3,3-dimethylbutyl)-N-methylpiperidin-4-amine] are more than 7.00 and more than 7.00. For `CN(CC1CCOCC1)C1CCN(S(=O)(=O)c2ccc(N3CCC(F)(F)CC3)nc2)CC1` [Example 169, 1-((6-(4,4-Difluoropiperidin-1-yl)pyridin-3-yl)sulfonyl)-N-methyl-N-((tetrahydro-2H-pyran-4-yl)methyl)piperidin-4-amine], the values for the pKi on human σ1 receptor and on human σ2/TMEM97 receptor were 6.30 to 7.00 and more than 7.00, respectively.

On to `O=S(=O)(c1ccc(N2CCC(F)(F)CC2)nc1)N1CCC(NCc2ccccc2)CC1` [Example 170], for which the pKi was less than 6.00 at human σ1 receptor and more than 7.00 at human σ2/TMEM97 receptor. Turning to `CN(Cc1ccc(C#N)cc1F)C1CCN(S(=O)(=O)c2ccc(N3CCC(F)(F)CC3)nc2)CC1` [Example 171, 4-(((1-((6-(4,4-Difluoropiperidin-1-yl)pyridin-3-yl)sulfonyl)piperidin-4-yl)(methyl)amino)methyl)-3-fluorobenzonitrile], the pKi at human σ1 receptor is less than 6.00; at human σ2/TMEM97 receptor it was more than 7.00. For `CN(Cc1ccccc1F)C1CCN(S(=O)(=O)c2ccc(N3CCC(F)(F)CC3)nc2)CC1` [Example 172, 1-((6-(4,4-Difluoropiperidin-1-yl)pyridin-3-yl)sulfonyl)-N-(2-fluorobenzyl)-N-methylpiperidin-4-amine], the pKi at human σ1 receptor and at human σ2/TMEM97 receptor was more than 7.00 throughout. As to `CN(Cc1ccc(C#N)c(F)c1)C1CCN(S(=O)(=O)c2ccc(N3CCC(F)(F)CC3)nc2)CC1` [Example 173, 4-(((1-((6-(4,4-Difluoropiperidin-1-yl)pyridin-3-yl)sulfonyl)piperidin-4-yl)(methyl)amino)methyl)-2-fluorobenzonitrile], the pKi on human σ1 receptor was less than 6.00; on human σ2/TMEM97 receptor it was more than 7.00. The corresponding values for `CN(Cc1cc(F)ccc1F)C1CCN(S(=O)(=O)c2ccc(N3CCC(F)(F)CC3)nc2)CC1` [Example 174, N-(2,5-Difluorobenzyl)-1-((6-(4,4-difluoropiperidin-1-yl)pyridin-3-yl)sulfonyl)-N-methylpiperidin-4-amine] are 6.30 to 7.00 and 6.30 to 7.00. `CN(Cc1ccccc1)[C@H]1CC[C@H](NS(=O)(=O)c2ccc(N3CCC(F)(F)CC3)nc2)CC1` [Example 175, N-((1r,4r)-4-(Benzyl(methyl)amino)cyclohexyl)-6-(4,4-difluoropiperidin-1-yl)pyridine-3-sulfonamide]: the pKi was 6.30 to 7.00 at human σ1 receptor and more than 7.00 on human σ2/TMEM97 receptor.

In the case of `CN(Cc1ccccc1)[C@H]1CC[C@H](NS(=O)(=O)c2ccc(N3CCC4(CCCO4)CC3)nc2)CC1` [Example 176, N-((1r,4r)-4-(Benzyl(meth-yl)amino)cyclohexyl)-6-(1-oxa-8-azaspiro[4.5]decan-8-yl)pyridine-3-sulfonamide], the pKi was less than 6.00 at human σ1 receptor and more than 7.00 on human σ2/TMEM97 receptor. The corresponding values for `CN(CC1CCOCC1)[C@H]1CC[C@H](NS(=O)(=O)c2ccc(N3CCC4(CCCO4)CC3)nc2)CC1` [Example 177, N-((1r,4r)-4-(Methyl((tetrahydro-2H-pyran-4-yl)methyl)amino)cyclohexyl)-6-(1-oxa-8-azaspiro[4.5]decan-8-yl)pyridine-3-sulfonamide] are less than 6.00 and more than 7.00. `CN(Cc1ccccc1F)[C@H]1CC[C@H](NS(=O)(=O)c2ccc(N3CCC4(CCCO4)CC3)nc2)CC1` [Example 178, N-((1r,4r)-4-((2-Fluorobenz-yl)(methyl)amino)cyclohexyl)-6-(1-oxa-8-azaspiro[4.5]decan-8-yl)pyridine-3-sulfonamide]: the pKi at human σ1 receptor is less than 6.00; at human σ2/TMEM97 receptor, more than 7.00. The corresponding values for `CN(Cc1cc(F)ccc1F)[C@H]1CC[C@H](NS(=O)(=O)c2ccc(N3CCC4(CCOC4)CC3)nc2)CC1` [Example 179, N-((1r,4r)-4-((2,5-Difluoro-benzyl)(methyl)amino)cyclohexyl)-6-(2-oxa-8-azaspiro[4.5]decan-8-yl)pyridine-3-sulfonamide] are less than 6.00 and more than 7.00. As for `CN(Cc1ccc(F)c(F)c1)[C@H]1CC[C@H](NS(=O)(=O)c2ccc(N3CCC4(CCOC4)CC3)nc2)CC1` [Example 180, N-((1r,4r)-4-((3,4-Difluoro-benzyl)(methyl)amino)cyclohexyl)-6-(2-oxa-8-azaspiro[4.5]decan-8-yl)pyridine-3-sulfonamide], the results for the pKi at human σ1 receptor and on human σ2/TMEM97 receptor were less than 6.00 and more than 7.00, respectively. With `CN(CCC(C)(C)C)[C@H]1CC[C@H](NS(=O)(=O)c2ccc(N3CCC4(CCOC4)CC3)nc2)CC1` [Example 181, N-((1r,4r)-4-((3,3-Dimethylbut-yl)(methyl)amino)cyclohexyl)-6-(2-oxa-8-azaspiro[4.5]decan-8-yl)pyridine-3-sulfonamide], the pKi at human σ1 receptor was 6.00 to 6.30; at human σ2/TMEM97 receptor it was more than 7.00.

As to `CN(CC(C)(C)C)[C@H]1CC[C@H](NS(=O)(=O)c2ccc(N3CCC4(CCOC4)CC3)nc2)CC1` [Example 182, N-((1r,4r)-4-(Methyl(neopentyl)a-mino)cyclohexyl)-6-(2-oxa-8-azaspiro[4.5]decan-8-yl)pyridine-3-sulfonamide], the pKi is less than 6.00 at human σ1 receptor and 6.00 to 6.30 on human σ2/TMEM97 receptor. The corresponding values for `CN(CC1CCOCC1)[C@H]1CC[C@H](NS(=O)(=O)c2ccc(N3CCC4(CCOC4)CC3)nc2)CC1` [Example 183, N-((1r,4r)-4-(Methyl((tetrahydro-2H-pyran-4-yl)methyl)amino)cyclohexyl)-6-(2-oxa-8-azaspiro[4.5]decan-8-yl)pyridine-3-sulfonamide] are 6.00 to 6.30 and 6.00 to 6.30. As for (+)-SKF-10047, the “affinity for the sigma-2 (σ2) site” value on sigma-2 (σ2) site was “micromolar affinity”. Regarding UKH-1114, in experiment [1], the mechanical hypersensitivity result is listed as “relieved mechanical hypersensitivity”.

Source of the values: patent publication US20240254115A1 (ACONDICIONAMIENTO TARRASENSE, priority 2021, published 2024).
